Holding throughout (format): cell-based, human
The subject of one assay is Keratin 19. The experiment in a line: RT-PCR of Keratin 19 expression in HHORSC. As to conditions: peptide 10 nM, 100 nM, 1 μM, 72 hours, FIG. 6. On the procedure:
(§1) Using the peptide of the present invention consisting of the amino acid sequence of SEQ ID NO: 1 prepared according to Preparation Example above, it was confirmed whether it promotes the activity of outer root sheath cells, a type of cell that forms hair follicles.
(§2) Specifically, HHORSC (human hair outer root sheath cell, Sciencell, USA) was seeded in a 6-well culture plate at 4×10^5 cells/well and then cultured in MSC complete medium (mesenchymal stem cell complete media) for 24 hours. Next, the medium was replaced with serum free MSC complete medium and cultured again for 24 hours. Then, the HHORSC was treated with the peptide of Preparation Example consisting of amino acid sequence of SEQ ID NO: 1 at concentrations of 10 nM, 100 nM, and 1 μM, respectively, and cultured at 37° C. for 72 hours. […] Then, CDNA was synthesized using a cDNA synthesis kit (enzynomics, Korea) by quantification using nano drop, and PCR was performed using primers for Ha3-II, Keratin 5, Keratin 14, and Keratin 19 (the base sequences of each primer are shown in Table 3 below) and PCR premix (enzynomics, Korea). Electrophoresis was performed on a 1.5% agarose gel, and the mRNAs of Ha3-II, Keratin 5, Keratin 14, and Keratin 19 were detected using a band analysis system (Bio-Rad gel image system).

The subject of a further assay is Ha3-II. The assay is described as follows: RT-PCR of Ha3-II expression in HHORSC. As to conditions: peptide 10 nM, 100 nM, 1 μM, 72 hours, FIG. 6. As to the method: as §1, §2
The next assay has as its system LEF-1. The experiment in a line: RT-PCR of LEF-1 expression in HHFDPC. To be noted: peptide 10 nM, 100 nM, 1 μM, 24 hours, FIG. 4. As to the method: (§3) Furthermore, in order to determine whether the β-catenin moves to the nucleus and is s activated to affect cell proliferation and differentiation, whether the expression of LEF-1 and cyclin D1 (cyclin D1), which act as downstream factors, increases with β-catenin activation was confirmed through RT-PCR. Specifically, in the same manner as the previous Western blotting experiment, HHFDPC cells were cultured, treated with the peptides of the Preparation Example of the present invention at concentrations of 10 nM, 100 nM, and 1 μM, respectively, and cultured at 37° C. for 24 hours. After washing the cells with PBS, RNA was isolated by treating them with 300 […] of easy blue (intron, Korea). Then, cDNA was synthesized using a cDNA synthesis kit (enzynomics, Korea) by quantifying it with nano drop, and PCR was performed using primers for LEF-1 and cyclin D1 (base sequences of the primers are listed in Table 2) and PCR premix (enzynomics, Korea). Electrophoresis was performed on a 1.5% agarose gel, and then the mRNA of LEF-1 and cyclin D1 was detected using a band analysis system (Bio-Rad gel image system).

For a further assay, the system named is cyclin D1. The experiment in a line: RT-PCR of cyclin D1 expression in HHFDPC. As to conditions: peptide 10 nM, 100 nM, 1 μM, 24 hours, FIG. 4. On the procedure:
as §3

The test system of the next assay is HHFDPC. The assay is described as follows: Proliferation of dermal papilla cells (MTT, absorbance at 540 nm). As to conditions: 72 hours, FIG. 1. On the procedure:
While culturing human hair follicle dermal dermal papilla cells (HHFDPC), the absorbance was measured after treatment with the peptide of the present invention to confirm whether there was an effect of promoting the proliferation of the HHFDPC dermal papilla cells.
Specifically, HHFDPC (Sciencell, USA) was seeded at 4λ10^3 cells/well in a 96-well culture plate, cultured in MSC complete medium stem (mesenchymal cell complete media, Sciencell, USA) for 24 hours, and then the medium was replaced with serum free MSC complete medium and cultured for another 24 hours. Then, the HHFDPC was treated with the peptide from Preparation Example consisting of amino acid sequence of SEQ ID NO: 1 at concentrations of 10 nM, 100 nM, and 1 μM, respectively, and cultured at 37° C. for 72 hours. As a positive control, minoxidil was treated at a concentration of 1 μM, and as a negative control, HHFDPC without any treatment was used. Then, 10 μl of 5 mg/mL MTT solution was added and cultured in a 37° C. CO2 incubator for 4 hours to stain the cells. After removing the medium, the cells were treated with 100 μl of DMSO and shaken for 10 minutes, and the number of HHFDPC cells was confirmed by measuring absorbance at a wavelength of 540 nm using a spectrophotometer.

The next assay has as its system Keratin 5. The experiment in a line: RT-PCR of Keratin 5 expression in HHORSC. To be noted: peptide 10 nM, 100 nM, 1 μM, 72 hours, FIG. 6. On the procedure:
as §1, §2

The test system of the next assay is DKK-1 protein. The assay is described as follows: Western blotting of DKK-1 protein in DHT-treated HHFDPC. To be noted: HHFDPC with DHT 100 nM, peptide 10 nM, 1 μM, 24 hours, FIG. 5. On the procedure: DKK-1 protein (dickkopf-related protein 1) is a hair loss-related protein known to be highly expressed in individuals with hair loss, especially male pattern hair loss, and its expression is known to be promoted by hormones such as DHT (Dihydrotestosterone). Accordingly, the expression of DKK-1 protein was induced by treating HHFDPC cells with DHT together with the peptide according to the Preparation Example of the present invention, and then the expression level of DKK-1 was measured through Western blotting to determine whether there was an effect of suppressing the expression of DKK-1 protein.
Specifically, HHFDPC as in [Experiment Example 1-1] was seeded in a 6-well culture plate at 4×10^5 cells/well and then cultured in MSC complete medium (mesenchymal stem cell complete media) for 24 hours. Next, the medium was replaced with serum free MSC complete medium and cultured again for 24 hours. In addition, the HHFDPC was treated with the peptide of SEQ ID NO: 1 prepared in Preparation Example at concentrations of 10 nM, 100 nM, and 1 μM, respectively, and at this time, DHT, an expression inducer of DKK-1 protein, was simultaneously treated at a concentration of 100 nM and then cultured at 37° C. for 24 hours. […] After washing again with 0.1% PBS-T (0.1% Tween-20 in PBS) three times for 15 minutes each, DKK-1 protein was detected by treatment with ECL solution (GE Healthcare, USA).
(In general: A western blot detects proteins with antibodies after separation by electrophoresis.)

These results are taken from patent US20240415920A1, “PEPTIDE HAVING ACTIVITY OF PREVENTING HAIR LOSS OR PROMOTING HAIR GROWTH, AND USE THEREOF” (CAREGEN CO., LTD., priority 2021, published 2024).

For the sequence “GCGLFVAAC [peptide of the present invention]”, the “Keratin 19 mRNA amount compared to the control group without treatment” value in the assay with Keratin 19 was “the amount of mRNA increased further”. Also, the “Ha3-II mRNA amount compared to the control group without treatment” value in the assay on Ha3-II was “the amount of mRNA increased further”. In the assay with LEF-1, the “LEF-1 mRNA amount compared to the control group without any treatment” value is reported as “the amount of mRNA increased further”. Further, in the assay with cyclin D1, the “cyclin D1 mRNA amount compared to the control group without any treatment” value is given as “the amount of mRNA increased further”. The “absorbance (cell proliferation) compared to the untreated control group” value in the assay on HHFDPC (peptide 10 nM, 100 nM, 1 μM) is reported as “the absorbance was measured to be higher”. For the same sequence, the “proliferation promotion effect compared to the positive control group (minoxidil 1 μM)” value in the assay on HHFDPC (peptide 1 μM) is listed as “showed a better proliferation promotion effect than the positive control group”. Also, the “Keratin 5 mRNA amount compared to the control group without treatment” value in the assay on Keratin 5 is reported as “the amount of mRNA increased further”. Moreover, the “concentration dependence of the DKK-1 expression level” value in the assay on DKK-1 protein is listed as “decreased depending on the concentration”. The “amount of DKK-1 protein compared to the negative control group (DHT only)” value with DKK-1 protein (Western blotting) is listed as “found to be reduced”.
